Measurements taken from patent EP4635500A1, “THERAPEUTIC AGENT FOR BACTERIAL INFECTION” (Sumitomo Pharma Co., Ltd., priority 2022, dated 2024).
In brackets after ≈: the same amount, converted by molar mass. Read-outs that look alike come from different tables or passages of the source.

Columns and labels:
[1] = tested on: A. baumannii; assay: MIC, broth microdilution, CDC/FDA Antibiotic Resistance Isolate Bank (Example 7, Tables 9, 13, 14); type: cell-based, Acinetobacter baumannii; settings: for MIC: read-out: MIC
[2] = tested on: P. aeruginosa; assay: MIC, broth microdilution, CDC/FDA Antibiotic Resistance Isolate Bank (Example 7, Tables 10, 15); type: cell-based; settings: for MIC: Pseudomonas aeruginosa, read-out: MIC
[3] = MIC distribution, metallo-β-lactamase-producing A. baumannii, inhibitor µg/mL in parentheses
[4] = 26 metallo-carbapenemase-producing P. aeruginosa strains, β-lactamase inhibitor µg/mL in parentheses
[5] = 96 strains of P. aeruginosa, β-lactamase inhibitor µg/mL in parentheses

## O=C(O)c1cn(C2CC2)c2cc(N3CCNCC3)c(F)cc2c1=O [Ciprofloxacin, ciprofloxacin]
[1]; Acinetobacter baumannii, A. baumannii KUB No. 5567, AR Bank #70, OXA-58, OXA-100
  MIC: 8 µg/mL (≈ 24.1 µM)
[1]; Acinetobacter baumannii, A. baumannii KUB No. 5575, AR Bank #78, OXA-71
  MIC: > 64 µg/mL
[1]; Acinetobacter baumannii, A. baumannii KUB No. 5598, AR Bank #101, OXA-24, OXA-65
  MIC: > 64 µg/mL
[1]; Acinetobacter baumannii, A. baumannii KUB No. 5706, AR Bank #273, OXA-23, OXA-66
  MIC: > 64 µg/mL
[1]; Acinetobacter baumannii, A. baumannii KUB No. 5707, AR Bank #274, OXA-66, OXA-72
  MIC: > 64 µg/mL
[1]; Acinetobacter baumannii, A. baumannii KUB No. 5710, AR Bank #277, OXA-24, OXA-65
  MIC: > 64 µg/mL
[1]; Acinetobacter baumannii, A. baumannii KUB No. 5713, AR Bank #280, OXA-66
  MIC: > 64 µg/mL
[1]; Acinetobacter baumannii, A. baumannii KUB No. 5718, AR Bank #285, OXA-24, OXA-65
  MIC: > 64 µg/mL
[1]; Acinetobacter baumannii, KUB No. 5721, AR Bank #288
  MIC: > 64 µg/mL
[1]; Acinetobacter baumannii, KUB No. 5722, AR Bank #259
  MIC: > 64 µg/mL
[1]; Acinetobacter baumannii, KUB No. 5724, AR Bank #291
  MIC: > 64 µg/mL
[1]; Acinetobacter baumannii, KUB No. 5727, AR Bank #294
  MIC: > 64 µg/mL
[1]; Acinetobacter baumannii, KUB No. 5728, AR Bank #295
  MIC: > 64 µg/mL
[1]; Acinetobacter baumannii, KUB No. 5729, AR Bank #296
  MIC: > 64 µg/mL
[1]; Acinetobacter baumannii, KUB No. 5730, AR Bank #297
  MIC: > 64 µg/mL
[1]; Acinetobacter baumannii, KUB No. 5732, AR Bank #299
  MIC: > 64 µg/mL
[1]; Acinetobacter baumannii, KUB No. 5733, AR Bank #300
  MIC: > 64 µg/mL
[1]; Acinetobacter baumannii, KUB No. 5734, AR Bank #301
  MIC: > 64 µg/mL
[1]; Acinetobacter baumannii, KUB No. 5735, AR Bank #302
  MIC: > 64 µg/mL
[1]; Acinetobacter baumannii, KUB No. 5737, AR Bank #304
  MIC: > 64 µg/mL
[1]; Acinetobacter baumannii, KUB No. 5738, AR Bank #305
  MIC: > 64 µg/mL
[1]; Acinetobacter baumannii, KUB No. 5739, AR Bank #306
  MIC: > 64 µg/mL
[1]; Acinetobacter baumannii, KUB No. 5741, AR Bank #308
  MIC: > 64 µg/mL
[1]; Acinetobacter baumannii, KUB No. 5742, AR Bank #309
  MIC: > 64 µg/mL
[1]; Acinetobacter baumannii, KUB No. 5743, AR Bank #310
  MIC: > 64 µg/mL
[1]; Acinetobacter baumannii, KUB No. 5745, AR Bank #312
  MIC: 8 µg/mL (≈ 24.1 µM)
[1]; Acinetobacter baumannii, 55 isolates of A. baumannii, read-out: MIC80
  MIC80: > 64 µg/mL
[1]; Acinetobacter baumannii, 55 isolates of A. baumannii, read-out: MIC90
  MIC90: > 64 µg/mL
[1]; [3]
  Number of isolates at MIC 16 µg/mL: 1
  Number of isolates at MIC 32 µg/mL: 1
  Number of isolates at MIC >32 µg/mL: 1
  Number of isolates at MIC >64 µg/mL: 1
[2]; [4]
  MIC against 26 metallo-carbapenemase-producing strains MIC50: 32 µg(mL)
  MIC against 26 metallo-carbapenemase-producing strains MIC90: 64 µg(mL)
[2]; [5]
  MIC against 96 strains of P. aeruginosa MIC50: 16 µg(mL)
  MIC against 96 strains of P. aeruginosa MIC90: 64 µg(mL)
[2]; P. aeruginosa KUB No. 5602, AR Bank # 105
  MIC: > 64 µg/mL
[2]; P. aeruginosa KUB No. 5665, AR Bank # 232
  MIC: 2 µg/mL (≈ 6.04 µM)
[2]; P. aeruginosa KUB No. 5666, AR Bank # 23
  MIC: 0.5 µg/mL (≈ 1.51 µM)
[2]; P. aeruginosa KUB No. 5667, AR Bank # 234
  MIC: 2 µg/mL (≈ 6.04 µM)
[2]; P. aeruginosa KUB No. 5669, AR Bank # 236
  MIC: 4 µg/mL (≈ 12.1 µM)
[2]; P. aeruginosa KUB No. 5675, AR Bank # 242
  MIC: 8 µg/mL (≈ 24.1 µM)
[2]; P. aeruginosa KUB No. 5676, AR Bank # 243
  MIC: 8 µg/mL (≈ 24.1 µM)
[2]; P. aeruginosa KUB No. 5705, AR Bank # 272
  MIC: 8 µg/mL (≈ 24.1 µM)
[2]; P. aeruginosa KUB No. 5747, AR Bank # 351
  MIC: 2 µg/mL (≈ 6.04 µM)
[2]; P. aeruginosa KUB No. 5748, AR Bank # 352
  MIC: 4 µg/mL (≈ 12.1 µM)
[2]; P. aeruginosa KUB No. 5750, AR Bank # 354
  MIC: 4 µg/mL (≈ 12.1 µM)
[2]; P. aeruginosa KUB No. 5754, AR Bank # 358
  MIC: 4 µg/mL (≈ 12.1 µM)
[2]; P. aeruginosa KUB No. 5755, AR Bank # 359
  MIC: 4 µg/mL (≈ 12.1 µM)
[2]; P. aeruginosa KUB No. 5798, AR Bank # 455
  MIC: 1 µg/mL (≈ 3.02 µM)
[2]; P. aeruginosa KUB No. 5801, AR Bank # 458
  MIC: 0.5 µg/mL (≈ 1.51 µM)
[2]; P. aeruginosa KUB No. 5802, AR Bank # 459
  MIC: 4 µg/mL (≈ 12.1 µM)
[2]; P. aeruginosa KUB No. 5804, AR Bank # 862
  MIC: 1 µg/mL (≈ 3.02 µM)
[2]; P. aeruginosa KUB No. 5806, AR Bank # 864
  MIC: > 64 µg/mL
[2]; P. aeruginosa KUB No. 5813, AR Bank # 508
  MIC: 0.002 µg/mL (≈ 0.00604 µM)
[2]; P. aeruginosa KUB No. 5815, AR Bank # 510
  MIC: 0.004 µg/mL (≈ 0.0121 µM)
[2]; P. aeruginosa KUB No. 5817, AR Bank # 512
  MIC: 0.001 µg/mL (≈ 0.00302 µM)
[2]; P. aeruginosa KUB No. 5820, AR Bank # 515
  MIC: > 0.064 µg/mL
